Columns and labels:
Format in all cases: functional, cell-based
[1] = test system: ZR-75-30; test: Antiproliferative activity against human ZR-7530 cells after 72 hrs by MTT assay; conditions: Homo sapiens, ZR-75-30, 72 h
[2] = test system: HCT-116; test: Antiproliferative activity against human HCT116 cells after 72 hrs by MTT assay; conditions: Homo sapiens, HCT-116, 72 h
[3] = test system: A549; test: Antiproliferative activity against human A549 cells after 72 hrs by MTT assay; conditions: Homo sapiens, A549, 72 h

Row | SMILES | IC50 [1] | IC50 [2] | IC50 [3]
1 | Cc1ccc(Sc2cc3c(c4nsnc24)C(=O)c2ccccc2C3=O)cc1 | 22 µM | 26 µM | > 100 µM
2 | O=C1c2ccccc2C(=O)c2c1cc(S(=O)(=O)c1ccc(Cl)cc1)c1nsnc21 | > 100 µM | 15 µM | > 100 µM
3 | O=C1c2ccccc2C(=O)c2c1cc(S(=O)(=O)Cc1ccccc1)c1nsnc21 | > 100 µM | 68 µM | > 100 µM
4 | O=C1c2ccccc2C(=O)c2c1cc(NC1CCCCC1)c1nsnc21 | 4.1 µM | 5.1 µM | 3.8 µM
5 | COc1ccc(Sc2cc3c(c4nsnc24)C(=O)c2ccccc2C3=O)cc1 | > 100 µM | > 100 µM | > 100 µM
6 | O=C1c2ccccc2C(=O)c2c1cc(Sc1ccc(Cl)cc1)c1nsnc21 | > 100 µM | > 100 µM | > 100 µM
7 | O=C1c2ccccc2C(=O)c2c1cc(S(=O)(=O)c1nc3ccccc3s1)c1nsnc21 | > 100 µM | > 100 µM | > 100 µM
8 | CCCCCCNc1cc2c(c3nsnc13)C(=O)c1ccccc1C2=O | 47 µM | 50 µM | > 100 µM
9 | O=C1c2ccccc2C(=O)c2c1cc(Sc1cccc(F)c1)c1nsnc21 | > 50 µM | > 50 µM | > 50 µM
10 | O=C1c2ccccc2C(=O)c2c1cc(S(=O)(=O)c1ccc(Br)cc1)c1nsnc21 | 94 µM | 18 µM | 97 µM
11 | CCOc1cccc(S(=O)(=O)c2cc3c(c4nsnc24)C(=O)c2ccccc2C3=O)c1 | > 100 µM | > 100 µM | > 100 µM
12 | CC(C)c1ccc(S(=O)(=O)c2cc3c(c4nsnc24)C(=O)c2ccccc2C3=O)cc1 | 83 µM | 27 µM | > 100 µM
13 | O=C1c2ccccc2C(=O)c2c1cc(S(=O)(=O)c1cccc(F)c1)c1nsnc21 | > 100 µM | 24 µM | > 100 µM
14 | O=C1c2ccccc2C(=O)c2c1cc(N1CCCC1)c1nsnc21 | 45 µM | 68 µM | > 100 µM
15 | O=C1c2ccccc2C(=O)c2c1cc(Sc1ccccc1)c1nsnc21 | > 100 µM | > 100 µM | > 100 µM
16 | COc1ccc(S(=O)(=O)c2cc3c(c4nsnc24)C(=O)c2ccccc2C3=O)cc1 | > 50 µM | > 50 µM | > 50 µM
17 | O=C1c2ccccc2C(=O)c2c1cc(Sc1ccc(Br)cc1)c1nsnc21 | > 100 µM | > 100 µM | > 100 µM
18 | O=C1c2ccccc2C(=O)c2c1cc(S(=O)(=O)c1ccc(F)cc1)c1nsnc21 | 36 µM | 23 µM | > 100 µM
19 | CCc1c2c(nc3ccc(OC(=O)N4CCC(N5CCCCC5)CC4)cc13)-c1cc3c(c(=O)n1C2)COC(=O)[C@]3(O)CC [IRINOTECAN] | 18 µM | 6.3 µM | 
20 | O=C1c2ccccc2C(=O)c2c1cc(N1CCN(Cc3ccccc3)CC1)c1nsnc21 | > 100 µM | > 100 µM | > 100 µM
21 | O=C1c2ccccc2C(=O)c2c1cc(NCc1ccc(Cl)cc1)c1nsnc21 | > 100 µM | > 100 µM | > 100 µM
22 | CCCCCCCCNc1cc2c(c3nsnc13)C(=O)c1ccccc1C2=O | 22 µM | 54 µM | 31 µM
23 | O=C1c2ccccc2C(=O)c2c1cc(NCc1ccc(C(F)(F)F)cc1)c1nsnc21 | 98 µM | 72 µM | > 100 µM

Row | SMILES | IC50 [1] | IC50 [2] | IC50 [3]
24 | O=C1c2ccccc2C(=O)c2c1cc(S(=O)(=O)c1ccccc1)c1nsnc21 | > 100 µM | 35 µM | > 100 µM
25 | O=C1c2ccccc2C(=O)c2c1cc(Sc1cccc(Cl)c1)c1nsnc21 | > 100 µM | > 100 µM | > 100 µM
26 | CC(C)(C)c1ccc(S(=O)(=O)c2cc3c(c4nsnc24)C(=O)c2ccccc2C3=O)cc1 | > 50 µM | 34 µM | > 50 µM
27 | CC[C@@]1(O)C(=O)OCc2c1cc1n(c2=O)Cc2cc3ccccc3nc2-1 [CAMPTOTHECIN] | 0.24 µM | 0.12 µM | 
28 | Cc1cccc(Sc2cc3c(c4nsnc24)C(=O)c2ccccc2C3=O)c1 | 49 µM | 21 µM | > 100 µM
29 | O=C1c2ccccc2C(=O)c2c1cc(S(=O)(=O)c1cccc(Cl)c1)c1nsnc21 | > 100 µM | > 100 µM | > 100 µM
30 | O=C1c2ccccc2C(=O)c2c1cc(NCc1ccccc1)c1nsnc21 | 4.5 µM | 1.9 µM | 4 µM
31 | O=C1c2ccccc2C(=O)c2c1cc(N1CCN(c3ccccn3)CC1)c1nsnc21 | > 100 µM | > 100 µM | > 100 µM
32 | CCOc1cccc(Sc2cc3c(c4nsnc24)C(=O)c2ccccc2C3=O)c1 | > 50 µM | > 50 µM | > 50 µM
33 | O=C1c2ccccc2C(=O)c2c1cc(Sc1ccc(F)cc1)c1nsnc21 | 20 µM | 9.8 µM | > 50 µM
34 | CCCNc1cc2c(c3nsnc13)C(=O)c1ccccc1C2=O | > 100 µM | > 100 µM | > 100 µM
35 | CCOc1ccc(Nc2cc3c(c4nsnc24)C(=O)c2ccccc2C3=O)cc1 | 91 µM | 100 µM | > 100 µM
36 | O=C1c2ccccc2C(=O)c2c1cc(SCc1ccccc1)c1nsnc21 | > 100 µM | > 100 µM | > 100 µM
37 | CCCCCCCNc1cc2c(c3nsnc13)C(=O)c1ccccc1C2=O | 12 µM | 34 µM | 44 µM
38 | O=C1c2ccccc2C(=O)c2c1cc(NCc1cccnc1)c1nsnc21 | 12 µM | 87 µM | > 100 µM
39 | CCC(C)Nc1cc2c(c3nsnc13)C(=O)c1ccccc1C2=O (stereo not drawn) | > 100 µM | 58 µM | > 100 µM
40 | CC(C)(C)c1ccc(Sc2cc3c(c4nsnc24)C(=O)c2ccccc2C3=O)cc1 | > 100 µM | > 100 µM | > 100 µM
41 | Cc1cccc(S(=O)(=O)c2cc3c(c4nsnc24)C(=O)c2ccccc2C3=O)c1 | > 100 µM | 78 µM | > 100 µM
42 | O=C1c2ccccc2C(=O)c2c1cc(Sc1nc3ccccc3s1)c1nsnc21 | > 100 µM | > 100 µM | > 100 µM
43 | O=C1c2ccccc2C(=O)c2c1cc(N1CCCCC1)c1nsnc21 | 8.1 µM | > 100 µM | > 100 µM
44 | CC(C)c1ccc(Sc2cc3c(c4nsnc24)C(=O)c2ccccc2C3=O)cc1 | > 100 µM | > 100 µM | > 100 µM
45 | CC(C)(C)OC(=O)N1CCN(c2cc3c(c4nsnc24)C(=O)c2ccccc2C3=O)CC1 | > 100 µM | > 100 µM | > 100 µM

Source: ChEMBL document CHEMBL4014301, “Design, synthesis and evaluation of 4-substituted anthra[2,1-c][1,2,5]thiadiazole-6,11-dione derivatives as novel non-camptothecin topoisomerase I inhibitors” (Bioorg Med Chem Lett, 2017)
